# Calls of active or inactive are those of the source. The calls are words filed in the database; no cut-off is given here.
# How the values were obtained:
# [1] = Inhibition of mitochondrial pyruvate carrier in C57BL/6J mouse cardiac mitochondria assessed as inhibition of pyruvate/malate-induced mitochondrial respiration by steady-state ADP coupled assay; parameters: species or system Heart
# [2] = Intrinsic clearance in human liver microsomes at 1 uM in presence of NADPH by LC-MS/MS analysis; type: ADME, Microsome
# [3] = Half life in human liver microsomes at 1 uM in presence of NADPH by LC-MS/MS analysis; type: ADME, Microsome
# [4] = Kinetic solubility of the compound in PBS at pH 7.4 measured after 24 hrs by LC-MS/MS analysis; type: physicochemical; conditions: for Kinetic_solubility: buffer, pH 7.4, 24 h; for solubility kinetic at 24 h: PBS, pH 7.4, read-out: Kinetic_solubility
# [5] = molecular target: T1, Peroxisome proliferator-activated receptor gamma (Homo sapiens, UniProt P37231); experiment: Agonist activity at Gal4-fused PPAR-gamma (unknown origin) transfected in mouse C2C12 cells assessed as decrease in luciferase activity at 0.2 to 20 uM measured after 24 hrs by Dual-Glo Luciferase assay; type: toxicity, cell-based; conditions: c2c12, 24 h, dose 0.2-20 µM
# T1 sequence (P37231 whole entry): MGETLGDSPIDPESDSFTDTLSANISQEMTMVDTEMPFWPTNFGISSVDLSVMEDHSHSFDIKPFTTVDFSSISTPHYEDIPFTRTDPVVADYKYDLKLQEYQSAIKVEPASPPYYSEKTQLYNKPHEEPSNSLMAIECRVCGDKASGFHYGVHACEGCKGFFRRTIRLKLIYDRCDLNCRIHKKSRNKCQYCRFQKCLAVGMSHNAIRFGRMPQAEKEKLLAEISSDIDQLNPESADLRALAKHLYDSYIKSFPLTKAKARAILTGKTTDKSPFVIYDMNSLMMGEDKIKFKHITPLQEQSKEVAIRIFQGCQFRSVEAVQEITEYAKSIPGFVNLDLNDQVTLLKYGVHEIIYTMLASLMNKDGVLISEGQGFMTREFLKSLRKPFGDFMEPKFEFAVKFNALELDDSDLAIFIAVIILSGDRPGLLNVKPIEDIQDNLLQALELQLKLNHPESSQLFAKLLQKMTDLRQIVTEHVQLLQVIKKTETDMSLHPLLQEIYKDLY
# LX-2 [6] = experiment: Inhibition of hepatic stellate cell activation in human LX-2 cells assessed as inhibition of TGF-beta-stimulated ACTA2 gene expression at 10 uM quantitative real-time PCR analysis; type: functional, cell-based
# LX-2 [7] = experiment: Inhibition of hepatic stellate cell activation in human LX-2 cells assessed as inhibition of TGF-beta-stimulated FN1 gene expression at 10 uM quantitative real-time PCR analysis; type: functional, cell-based
# LX-2 [8] = experiment: Inhibition of hepatic stellate cell activation in human LX-2 cells assessed as inhibition of TGF-beta-stimulated […] gene expression at 10 uM quantitative real-time PCR analysis; type: functional, cell-based
# [9] = molecular target: T1, Peroxisome proliferator-activated receptor gamma; experiment: Agonist activity at Gal4-fused PPAR-gamma (unknown origin) transfected in mouse C2C12 cells assessed as decrease in luciferase activity at 10 uM measured after 24 hrs by Dual-Glo Luciferase assay; type: toxicity, cell-based; conditions: c2c12, 24 h
smiles,measurement,setting,value
Cc1ccccc1-c1n[nH]cc1/C=C(\C#N)C(=O)O,EC50,[1],659 nM
N#C/C(=C\c1c[nH]nc1-c1cccc2ccccc12)C(=O)O,EC50,[1],273 nM
CC(C)(C)c1ccc(-c2n[nH]cc2/C=C(\C#N)C(=O)O)cc1,EC50,[1],447 nM
N#C/C(=C\c1c[nH]nc1-c1ccc(Br)cc1)C(=O)O,EC50,[1],344 nM
COc1ccc(-c2n[nH]cc2/C=C(\C#N)C(=O)O)c(F)c1,EC50,[1],659 nM
N#C/C(=C\c1c[nH]nc1-c1cccc(Br)c1)C(=O)O,Intrinsic clearance,[2],3 µL/min/mg
same,t1/2,[3],> 2 h
same,Kinetic_solubility,[4],0.2 µM
same,EC50,[1],444 nM
CCn1cc(/C=C(\C#N)C(=O)O)c(-c2ccc(Cl)c(Cl)c2)n1,EC50,[1],390 nM
N#C/C(=C\c1c[nH]nc1-c1ccc(Cl)cc1Cl)C(=O)O,EC50,[1],1080 nM
N#C/C(=C\c1c[nH]nc1-c1ccc(Cl)cc1)C(=O)O,EC50,[1],796 nM
N#C/C(=C\c1c[nH]nc1-c1cc(Cl)ccc1Cl)C(=O)O,EC50,[1],504 nM
N#C/C(=C\c1cn(-c2ccccc2)c2ccccc12)C(=O)O,EC50,[1],241 nM
N#C/C(=C\c1c[nH]nc1-c1cccc(Cl)c1)C(=O)O,EC50,[1],650 nM
N#C/C(=C\c1c[nH]nc1-c1ccccc1C(F)(F)F)C(=O)O,EC50,[1],258 nM
N#C/C(=C\c1cn(Cc2ccccc2)nc1-c1ccc(Cl)c(Cl)c1)C(=O)O,EC50,[1],722 nM
COc1ccc(-c2n[nH]cc2/C=C(\C#N)C(=O)O)cc1F,EC50,[1],568 nM
COc1cccc(-c2n[nH]cc2/C=C(\C#N)C(=O)O)c1,EC50,[1],927 nM
N#C/C(=C\c1c[nH]nc1-c1ccc([N+](=O)[O-])cc1)C(=O)O,EC50,[1],4120 nM
N#C/C(=C\c1c[nH]nc1-c1ccccc1F)C(=O)O,EC50,[1],791 nM
COc1ccccc1-c1n[nH]cc1/C=C(\C#N)C(=O)O,EC50,[1],568 nM
COc1ccc(-c2n[nH]cc2/C=C(\C#N)C(=O)O)cc1OC,EC50,[1],808 nM
CCc1ccc(-c2n[nH]cc2/C=C(\C#N)C(=O)O)cc1,EC50,[1],614 nM
N#C/C(=C\c1c[nH]nc1-c1cc2ccccc2s1)C(=O)O,EC50,[1],552 nM
N#C/C(=C\c1c[nH]nc1-c1cc(C(F)(F)F)cc(C(F)(F)F)c1)C(=O)O,EC50,[1],165 nM
CC(C)(C)OC(=O)/C(C#N)=C/c1c[nH]nc1-c1ccc(Cl)c(Cl)c1,EC50,[1],8710 nM
N#C/C(=C\c1cn(-c2ccccc2)nc1-c1ccc(Cl)c(Cl)c1)C(=O)O,EC50,[1],369 nM
N#C/C(=C\c1c[nH]nc1-c1cccs1)C(=O)O,EC50,[1],374 nM
N#C/C(=C\c1c[nH]nc1-c1ccc(F)cc1)C(=O)O,EC50,[1],651 nM
N#C/C(=C\c1c[nH]nc1-c1ccc(F)c([N+](=O)[O-])c1)C(=O)O,EC50,[1],810 nM
N#C/C(=C\c1c[nH]nc1-c1cccnc1)C(=O)O,EC50,[1],7770 nM
N#C/C(=C\c1c[nH]nc1-c1cccc(F)c1)C(=O)O,EC50,[1],785 nM
CCOC(=O)/C(C#N)=C/c1c[nH]nc1-c1ccc(Cl)c(Cl)c1,Intrinsic clearance,[2],377 µL/min/mg
same,t1/2,[3],0.03 h
same,Kinetic_solubility,[4],4.8 µM
same,EC50,[1],3890 nM
N#C/C(=C\c1cn(-c2ccccc2)nc1-c1cccc2ccccc12)C(=O)O,EC50,[1],707 nM
N#C/C(=C\c1c[nH]nc1-c1ccc(-c2ccccc2)cc1)C(=O)O,EC50,[1],919 nM
N#C/C(=C\c1c[nH]nc1-c1cccc(C(F)(F)F)c1)C(=O)O,Intrinsic clearance,[2],3 µL/min/mg
same,t1/2,[3],> 2 h
same,Activity,[5],Not_active
same,solubility kinetic at 24 h,[4],≥ 100 µM
same,EC50,[1],108 nM
N#C/C(=C\c1c[nH]nc1-c1ccc(Cl)c(Cl)c1)C(=O)O,inhibition,LX-2 [6],Active
same,Intrinsic clearance,[2],3 µL/min/mg
same,inhibition,LX-2 [7],Active
same,t1/2,[3],> 2 h
same,inhibition,LX-2 [8],Active
same,Activity,[5],Not_active
same,solubility kinetic at 24 h,[4],≥ 100 µM
same,EC50,[1],107 nM
N#C/C(=C\c1c[nH]nc1-c1ccc2c(c1)OCO2)C(=O)O,EC50,[1],435 nM
N#C/C(=C\c1cn(Cc2ccccc2)nc1-c1ccc2ccccc2c1)C(=O)O,EC50,[1],1290 nM
N#C/C(=C\c1c[nH]nc1-c1cc(Br)cc(Br)c1)C(=O)O,inhibition,LX-2 [6],Active
same,Intrinsic clearance,[2],45 µL/min/mg
same,t1/2,[3],0.257 h
same,Activity,[5],Not_active
same,Kinetic_solubility,[4],22 µM
same,EC50,[1],70 nM
Cc1cccc(-c2n[nH]cc2/C=C(\C#N)C(=O)O)c1,EC50,[1],550 nM
N#C/C(=C\c1cn(-c2ccccc2)nc1-c1ccc2ccccc2c1)C(=O)O,EC50,[1],789 nM
COc1ccc(-c2n[nH]cc2/C=C(\C#N)C(=O)O)cc1,EC50,[1],795 nM
N#C/C(=C\c1c[nH]nc1-c1ccccc1)C(=O)O,EC50,[1],796 nM
N#C/C(=C\c1c[nH]nc1-c1ccc2ccccc2c1)C(=O)O,inhibition,LX-2 [6],Active
same,Intrinsic clearance,[2],10 µL/min/mg
same,inhibition,LX-2 [7],Active
same,t1/2,[3],1.15 h
same,inhibition,LX-2 [8],Active
same,Activity,[5],Not_active
same,solubility kinetic at 24 h,[4],≥ 100 µM
same,EC50,[1],212 nM
CN(CCOc1ccc(CC2SC(=O)NC2=O)cc1)c1ccccn1 (stereo not given) [ROSIGLITAZONE],Activity,[9],Active
N#C/C(=C\c1c[nH]nc1-c1ccc(C(F)(F)F)cc1)C(=O)O,EC50,[1],543 nM
CS(=O)(=O)c1ccc(-c2n[nH]cc2/C=C(\C#N)C(=O)O)cc1,EC50,[1],18300 nM
N#C/C(=C\c1c[nH]nc1-c1ccccc1Cl)C(=O)O,EC50,[1],516 nM
CC(C)(C)OC(=O)/C(C#N)=C/c1c[nH]nc1-c1cccc(C(F)(F)F)c1,Intrinsic clearance,[2],2 µL/min/mg
same,t1/2,[3],> 2 h
same,Kinetic_solubility,[4],24.4 µM
same,EC50,[1],12000 nM
